Reference: the NIST ThermoML archive (doi:10.1021/je060170c)
Where “and” joins values, the source holds several entries; their conditions need not be identical. Equal entries are not always repeated.

Assays:
[1] = 101 kPa, Liquid; for viscosity: Anton Paar Stabinger viscometer
[2] = xn = mol fraction of the nth substance listed; details: 101 kPa, Liquid; for viscosity: Anton Paar Stabinger viscometer

Cc1ccccc1C [1,2-dimethylbenzene]
[1]
Details | mass density [kg/m3] | speed of sound [m/s] | viscosity [mPa·s]
288.15 K | 883.285 | 1390.3 | 0.871
293.15 K | 879.083 | 1369.7 | 0.81
298.15 K | 875.532 | 1349.4 | 0.756
303.15 K | 870.726 | 1328.3 | 0.708

Cc1ccccc1C [1,2-dimethylbenzene] + COc1ccccc1
[2], x2 = 0
Details | mass density [kg/m3] | speed of sound [m/s] | viscosity [mPa·s]
288.15 K | 883.285 | 1390.3 | 0.871
293.15 K | 879.083 | 1369.7 | 0.81
298.15 K | 875.532 | 1349.4 | 0.756
303.15 K | 870.726 | 1328.3 | 0.708

Cc1cc(C)cc(C)c1 [1,3,5-trimethylbenzene]
[1]
Details | mass density [kg/m3] | speed of sound [m/s] | viscosity [mPa·s]
288.15 K | 869.169 | 1377.5 | 0.754
293.15 K | 865.072 | 1357 | 0.705
298.15 K | 861.062 | 1336.9 | 0.661
303.15 K | 856.95 | 1316.8 | 0.621

Cc1cccc(C)c1 [1,3-dimethylbenzene]
[1]
Details | mass density [kg/m3] | speed of sound [m/s] | viscosity [mPa·s]
288.15 K | 868.317 | 1362.6 | 0.666
293.15 K | 864.049 | 1357 | 0.619
298.15 K | 859.767 | 1321 | 0.581
303.15 K | 855.469 | 1300.3 | 0.552

Cc1cccc(C)c1 [1,3-dimethylbenzene] + COc1ccccc1
[2], x2 = 0
Details | mass density [kg/m3] | speed of sound [m/s] | viscosity [mPa·s]
288.15 K | 868.317 | 1362.6 | 0.666
293.15 K | 864.049 | 1343.4 | 0.619
298.15 K | 859.767 | 1321 | 0.581
303.15 K | 855.469 | 1300.3 | 0.552

Cc1ccc(C)cc1 [1,4-dimethylbenzene]
[1]
Details | mass density [kg/m3] | speed of sound [m/s] | viscosity [mPa·s]
288.15 K | 865.253 | 1352 | 0.701
293.15 K | 860.917 | 1331.1 | 0.65
298.15 K | 856.617 | 1310 | 0.611
303.15 K | 852.255 | 1289.7 | 0.576

Cc1ccc(C)cc1 [1,4-dimethylbenzene] + COc1ccccc1
[2], x2 = 0
Details | mass density [kg/m3] | speed of sound [m/s] | viscosity [mPa·s]
288.15 K | 865.253 | 1352 | 0.701
293.15 K | 860.917 | 1331.1 | 0.65
298.15 K | 856.617 | 1310 | 0.611
303.15 K | 852.255 | 1289.7 | 0.576

COc1ccccc1 [anisole]
[1]
Details | mass density | speed of sound | viscosity [mPa·s]
288.15 K | 998.441 kg/m3 and 998.44 kg/m3 | 1449.1 m/s | 1.188
293.15 K | 993.649 kg/m3 and 993.653 kg/m3 and 993.651 kg/m3 | 1428.5 m/s | 1.084
298.15 K | 989.106 kg/m3 [middle of 4 runs] | 1408 m/s | 1.017
303.15 K | 984.372 kg/m3 and 984.37 kg/m3 and 984.374 kg/m3 | 1387.7 m/s and 1386.7 m/s | 0.931

COc1ccccc1 [anisole] + Cc1cc(C)cc(C)c1
[2], x1 = 1
Details | mass density [kg/m3] | speed of sound [m/s] | viscosity [mPa·s]
288.15 K | 998.44 | 1449.1 | 1.188
293.15 K | 993.651 | 1428.5 | 1.084
298.15 K | 989.106 | 1408 | 1.017
303.15 K | 984.37 | 1386.7 | 0.931

c1ccccc1 [benzene]
[1]
Details | mass density [kg/m3] | speed of sound [m/s] | viscosity [mPa·s]
288.15 K | 884.184 | 1347.2 | 0.709
293.15 K | 877.43 | 1323.3 | 0.648
298.15 K | 873.58 | 1299.7 | 0.604
303.15 K | 868.174 | 1276.4 | 0.571

c1ccccc1 [benzene] + COc1ccccc1
[2], x2 = 0
Details | mass density [kg/m3] | speed of sound [m/s] | viscosity [mPa·s]
288.15 K | 884.184 | 1347.2 | 0.709
293.15 K | 877.43 | 1323.3 | 0.648
298.15 K | 873.58 | 1299.7 | 0.604
303.15 K | 868.174 | 1276.4 | 0.571

Cc1ccccc1 [toluene]
[1]
Details | mass density [kg/m3] | speed of sound [m/s] | viscosity [mPa·s]
288.15 K | 871.412 | 1350 | 0.63
293.15 K | 866.874 | 1327.2 | 0.588
298.15 K | 862.2 | 1305.4 | 0.556
303.15 K | 857.464 | 1283.8 | 0.523

Cc1ccccc1 [toluene] + COc1ccccc1
[2], x2 = 0
Details | mass density [kg/m3] | speed of sound [m/s] | viscosity [mPa·s]
288.15 K | 871.412 | 1350 | 0.63
293.15 K | 866.874 | 1327.2 | 0.588
298.15 K | 862.2 | 1305.4 | 0.556
303.15 K | 857.464 | 1283.8 | 0.523
